Reference: patent publication US9670201B2, “Methyl- and trifluoromethyl-substituted pyrrolopyridine modulators of RORC2 and methods of use thereof” (Pfizer Inc., priority 2014, dated 2017)

Target: RORC2 ligand binding domain (6-His-RORC2 LBD) (Homo sapiens (Human), UniProt P51449)
Assay: Co-activator recruitment by TR-FRET
Type: biochemical
Conditions: 6-His-RORC2 LBD / SRC1-2 coactivator peptide, Table 1

Chain of RORC2 ligand binding domain (6-His-RORC2 LBD) (P51449 269-508): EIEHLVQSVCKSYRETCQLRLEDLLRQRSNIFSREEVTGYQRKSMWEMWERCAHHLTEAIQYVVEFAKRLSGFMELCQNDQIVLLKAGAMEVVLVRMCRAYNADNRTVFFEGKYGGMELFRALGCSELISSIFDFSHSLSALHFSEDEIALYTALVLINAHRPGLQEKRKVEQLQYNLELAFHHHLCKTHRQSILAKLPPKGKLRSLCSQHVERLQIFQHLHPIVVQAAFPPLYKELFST

| Structure (SMILES) | IC50 [nM] |
| --- | --- |
| CC(C(=O)N1CCC(c2cn(C)c3ncc(NC(=O)c4cccc(C#N)c4)c(C(F)(F)F)c23)CC1)C1CC1 (racemic) [Example 25, Rac-3-cyano-N-(3-(1-(2-cyclopropylpropanoyl)piperidin-4-yl)-1-methyl-4-(trifluoromethyl)-1H-pyrrolo[2,3-b]pyridin-5-yl)benzamide] | 5.8 |
| Cc1c(NC(=O)c2cccc(C#N)c2)cnc2c1c([C@H]1C[C@H](C)N(C(=O)C3CCCC3)C[C@H]1C)cn2C (relative stereo) [Example 97, rel-3-cyano-N-(3-((2S,4S,5S)-1-(cyclopentanecarbonyl)-2,5-dimethylpiperidin-4-yl)-1,4-dimethyl-1H-pyrrolo[2,3-b]pyridin-5-yl)benzamide] | 18.6 |
| Cn1cc(C2CCN(C(=O)[C@H]3CCCS3)CC2)c2c(C(F)(F)F)c(NC(=O)c3cccc(C#N)c3)cnc21 (single isomer, unassigned) [Example 28] | 7.1 |
| Cn1cc(C2CCN(C(=O)[C@@H]3CCCS3)CC2)c2c(C(F)(F)F)c(NC(=O)c3cccc(C#N)c3)cnc21 (single isomer, unassigned) [Example 29] | 0.9 |
| Cc1c(NC(=O)c2cccc(C#N)c2)cnc2c1c(C1CCN(C(=O)[C@H]3CCC[C@@H]3C)CC1)cn2C (single isomer, unassigned) [Example 46] | 16.4 |
| Cc1c(NC(=O)c2cccc(C#N)c2)cnc2c1c(C1CCN(C(=O)[C@@H]3CCC[C@H]3C)CC1)cn2C (single isomer, unassigned) [Example 47] | 10.1 |
| Cc1c(NC(=O)c2cccc(C#N)c2)cnc2c1c(C1CCN(C(=O)[C@@H]3CCC[C@H]3C(C)C)CC1)cn2C (single isomer, unassigned) [Example 49] | 6.2 |
| Cn1cc(C2CCN(C(=O)C3CCCC3)CC2)c2c(C(F)(F)F)c(NC(=O)c3ccc(F)c(C#N)c3)cnc21 [Example 3, 3-cyano-N-(3-(1-(cyclopentanecarbonyl)piperidin-4-yl)-1-methyl-4-(trifluoromethyl)-1H-pyrrolo[2,3-b]pyridin-5-yl)-4-fluorobenzamide] | 3.2 |
| CC(C)C(=O)N1CCC(c2cn(C)c3ncc(NC(=O)c4ccc(F)c(C#N)c4)c(C(F)(F)F)c23)CC1 [Example 9, 3-cyano-4-fluoro-N-(3-(1-isobutyrylpiperidin-4-yl)-1-methyl-4-(trifluoromethyl)-1H-pyrrolo[2,3-b]pyridin-5-yl)benzamide] | 5.4 |
| COc1ccc(C(=O)Nc2cnc3c(c(C4CCN(C(=O)C(C)C)CC4)cn3C)c2C(F)(F)F)cc1Cl [Example 10, 3-chloro-N-(3-(1-isobutyrylpiperidin-4-yl)-1-methyl-4-(trifluoromethyl)-1H-pyrrolo[2,3-b]pyridin-5-yl)-4-methoxybenzamide] | 3.5 |
| CC(C)C(=O)N1CCC(c2cn(C)c3ncc(NC(=O)c4ccc(Cl)c(C#N)c4)c(C(F)(F)F)c23)CC1 [Example 11, 4-chloro-3-cyano-N-(3-(1-isobutyrylpiperidin-4-yl)-1-methyl-4-(trifluoromethyl)-1H-pyrrolo[2,3-b]pyridin-5-yl)benzamide] | 1.5 |
| CC(C)C(=O)N1CCC(c2cn(C)c3ncc(NC(=O)c4ccc(F)c(Cl)c4)c(C(F)(F)F)c23)CC1 [Example 12, 3-chloro-4-fluoro-N-(3-(1-isobutyrylpiperidin-4-yl)-1-methyl-4-(trifluoromethyl)-1H-pyrrolo[2,3-b]pyridin-5-yl)benzamide] | 11.8 |
| COc1cc(Cl)cc(C(=O)Nc2cnc3c(c(C4CCN(C(=O)C(C)C)CC4)cn3C)c2C(F)(F)F)c1 [Example 13, 3-chloro-N-(3-(1-isobutyrylpiperidin-4-yl)-1-methyl-4-(trifluoromethyl)-1H-pyrrolo[2,3-b]pyridin-5-yl)-5-methoxybenzamide] | 5 |
| Cn1cc(C2CCN(C(=O)[C@H]3C[C@H]4CCCC[C@H]4C3)CC2)c2c(C(F)(F)F)c(NC(=O)c3cccc(C#N)c3)cnc21 [Example 16, 3-cyano-N-(1-methyl-3-(1-((2r,3aR,7aS)-octahydro-1H-indene-2-carbonyl)piperidin-4-yl)-4-(trifluoromethyl)-1H-pyrrolo[2,3-b]pyridin-5-yl)benzamide] | 10.2 |
| Cn1cc(C2CCN(C(=O)CC3CCC3)CC2)c2c(C(F)(F)F)c(NC(=O)c3cccc(C#N)c3)cnc21 [Example 18, 3-cyano-N-(3-(1-(2-cyclobutylacetyl)piperidin-4-yl)-1-methyl-4-(trifluoromethyl)-1H-pyrrolo[2,3-b]pyridin-5-yl)benzamide] | 3.8 |
| Cn1cc(C2CCN(C(=O)CC3CCCCC3)CC2)c2c(C(F)(F)F)c(NC(=O)c3cccc(C#N)c3)cnc21 [Example 20, 3-cyano-N-(3-(1-(2-cyclohexylacetyl)piperidin-4-yl)-1-methyl-4-(trifluoromethyl)-1H-pyrrolo[2,3-b]pyridin-5-yl)benzamide] | 5.2 |

| Structure (SMILES) | IC50 [nM] |
| --- | --- |
| Cn1cc(C2CCN(C(=O)CC3CC3)CC2)c2c(C(F)(F)F)c(NC(=O)c3cccc(C#N)c3)cnc21 [Example 24, 3-cyano-N-(3-(1-(2-cyclopropylacetyl)piperidin-4-yl)-1-methyl-4-(trifluoromethyl)-1H-pyrrolo[2,3-b]pyridin-5-yl)benzamide] | 5.8 |
| Cc1c(NC(=O)c2cccc(C#N)c2)cnc2c1c(C1CCN(C(=O)c3cccc4c3CCC4)CC1)cn2C [Example 34, 3-cyano-N-(3-(1-(2,3-dihydro-1H-indene-4-carbonyl)piperidin-4-yl)-1,4-dimethyl-1H-pyrrolo[2,3-b]pyridin-5-yl)benzamide] | 5.7 |
| Cc1c(NC(=O)c2cccc(C#N)c2)cnc2c1c(C1CCN(C(=O)[C@H](C)C(C)C)CC1)cn2C [Example 37, (R)-3-cyano-N-(3-(1-(2,3-dimethylbutanoyl)piperidin-4-yl)-1,4-dimethyl-1H-pyrrolo[2,3-b]pyridin-5-yl)benzamide] | 11.6 |
| Cc1c(NC(=O)c2cc(Cl)ccc2F)cnc2c1c(C1CCN(C(=O)[C@H](C)C(C)(C)C)CC1)cn2C [Example 41, (R)-5-chloro-N-(1,4-dimethyl-3-(1-(2,3,3-trimethylbutanoyl)piperidin-4-yl)-1H-pyrrolo[2,3-b]pyridin-5-yl)-2-fluorobenzamide] | 4.5 |
| COc1cc(Cl)cc(C(=O)Nc2cnc3c(c(C4CCN(C(=O)[C@H](C)C(C)(C)C)CC4)cn3C)c2C)c1 [Example 42, (R)-3-chloro-N-(1,4-dimethyl-3-(1-(2,3,3-trimethylbutanoyl)piperidin-4-yl)-1H-pyrrolo[2,3-b]pyridin-5-yl)-5-methoxybenzamide] | 7.6 |
| Cc1c(NC(=O)c2cccc(C#N)c2)cnc2c1c(C1CCN(C(=O)[C@H](C)C34CC(C3)C4)CC1)cn2C [Example 50, (R)—N-(3-(1-(2-(bicyclo[1.1.1]pentan-1-yl)propanoyl)piperidin-4-yl)-1,4-dimethyl-1H-pyrrolo[2,3-b]pyridin-5-yl)-3-cyanobenzamide] | 7.5 |
| Cc1c(NC(=O)c2cccc(C#N)c2)cnc2c1c(C1CCN(C(=O)[C@H](C)C3CCCC3)CC1)cn2C [Example 51, (R)-3-cyano-N-(3-(1-(2-cyclopentylpropanoyl)piperidin-4-yl)-1,4-dimethyl-1H-pyrrolo[2,3-b]pyridin-5-yl)benzamide] | 6.9 |
| C[C@@H](C(=O)N1CCC(c2cn(C)c3ncc(NC(=O)c4cc(O)cc(C#N)c4)c(C(F)(F)F)c23)CC1)C(C)(C)C [Example 54, (R)-3-cyano-5-hydroxy-N-(1-methyl-4-(trifluoromethyl)-3-(1-(2,3,3-trimethylbutanoyl)piperidin-4-yl)-1H-pyrrolo[2,3-b]pyridin-5-yl)benzamide] | 4.7 |
| Cn1cc(C2CCN(C(=O)C3CCCC3)CC2)c2c(C(F)(F)F)c(NC(=O)c3cc(O)cc(C#N)c3)cnc21 [Example 55, 3-cyano-N-(3-(1-(cyclopentanecarbonyl)piperidin-4-yl)-1-methyl-4-(trifluoromethyl)-1H-pyrrolo[2,3-b]pyridin-5-yl)-5-hydroxybenzamide] | 10.6 |
| Cc1c(NC(=O)c2cc(O)cc(C#N)c2)cnc2c1c(C1CCN(C(=O)[C@H](C)C(C)(C)C)CC1)cn2C [Example 56, (R)-3-cyano-N-(1,4-dimethyl-3-(1-(2,3,3-trimethylbutanoyl)piperidin-4-yl)-1H-pyrrolo[2,3-b]pyridin-5-yl)-5-hydroxybenzamide] | 5.6 |
| Cc1ccc(C(=O)Nc2cnc3c(c([C@@H]4CCN(C(=O)C5CCCC5)C(C)(C)C4)cn3C)c2C)cc1C#N [Example 59, (R)-3-cyano-N-(3-(1-(cyclopentanecarbonyl)-2,2-dimethylpiperidin-4-yl)-1,4-dimethyl-1H-pyrrolo[2,3-b]pyridin-5-yl)-4-methylbenzamide] | 11.8 |
| Cc1c(NC(=O)c2ccc(F)c(C#N)c2)cnc2c1c([C@@H]1CCN(C(=O)C3CCCC3)C(C)(C)C1)cn2C [Example 61, (R)-3-cyano-N-(3-(1-(cyclopentanecarbonyl)-2,2-dimethylpiperidin-4-yl)-1,4-dimethyl-1H-pyrrolo[2,3-b]pyridin-5-yl)-4-fluorobenzamide] | 15.2 |
| COc1cc(Cl)cc(C(=O)Nc2cnc3c(c([C@@H]4CCN(C(=O)C(C)C)C(C)(C)C4)cn3C)c2C)c1 [Example 62, (R)-3-chloro-N-(3-(1-isobutyryl-2,2-dimethylpiperidin-4-yl)-1,4-dimethyl-1H-pyrrolo[2,3-b]pyridin-5-yl)-5-methoxybenzamide] | 9.7 |
| COc1cc(Cl)cc(C(=O)Nc2cnc3c(c([C@@H]4CCN(C(=O)C5CCCC5)C(C)(C)C4)cn3C)c2C)c1 [Example 63, (R)-3-chloro-N-(3-(1-(cyclopentane-carbonyl)-2,2-dimethylpiperidin-4-yl)-1,4-dimethyl-1H-pyrrolo[2,3-b]pyridin-5-yl)-5-methoxybenzamide] | 12.9 |
| Cc1c(NC(=O)c2cc(O)cc(C#N)c2)cnc2c1c([C@@H]1CCN(C(=O)C3CCCC3)C(C)(C)C1)cn2C [Example 64, (R)-3-cyano-N-(3-(1-(cyclopentanecarbonyl)-2,2-dimethylpiperidin-4-yl)-1,4-dimethyl-1H-pyrrolo[2,3-b]pyridin-5-yl)-5-hydroxybenzamide] | 41.8 |
